Assay results as given in publication PMC6068397 (ACS nano, 2018).
Entries after “also recorded” stand apart in the source; their conditions may differ.

Experiments:
native MOR [1] = conditions: optical assays; cited from earlier work
native MOR [2] = conditions: cited from earlier work
[3] = test system: water-soluble μ-opioid receptor (wsMOR); assay: wsMOR-functionalized graphene field-effect transistor; assay type: binding, human; conditions: GFET, 1 nM oxytocin solution
[4] = test system: water-soluble μ-opioid receptor (wsMOR); assay type: binding, human; conditions: 1× PBS

Substance: [D-Ala^2, N-MePhe^4, Gly-ol]-enkephalin
- KA, binding between native MOR and enkephalin (native MOR [1]): 1.2−3.1 nM

Substance: oxytocin
- Specific binding to native MOR (native MOR [2]): known not to bind specifically to native MOR
- Level of nonspecific binding to wsMOR [3]: low level of nonspecific binding
- Sensor response (shift of the Dirac voltage, ΔVD) ([3]; negative control): 0.17 V
- Response of the biosensor (selectivity, negative control) ([4]; concentrations below 1 μM, graphene microelectrode): essentially negligible

Substance: β-endorphin
- Ratio of amplitude A, β-endorphin to enkephalin ([4]; larger than the amplitude found for enkephalin): ~ 1.6 times
- Limit of detection ([4]; physiological ionic strength): picomolar range; also recorded: picomolar level
